Test results as given in EP4745117A1, “NOVEL INDENONE DERIVATIVE AND USE THEREOF” (Amyloid Solution Inc., priority 2023, dated 2025).

What was measured:
[1] = molecular target: Tau-RD3 (Tau repeat domain 3) (Homo sapiens, UniProt P10636); assay: Tau disaggregation test by Thioflavin-T analysis; format: biochemical; conditions: for EC50: Tau-RD3 35 µM aggregated 24 hours, then compound 0 - 500 µM for 48 hours at 37 °C, concentration disaggregating 50 % of aggregates vs control, read-out: EC50 (µM) Tau; for disaggregation effect for tau protein aggregates: statement in words summarising the Thioflavin-T results
Chain of Tau-RD3 (Tau repeat domain 3) (P10636 623-653 limits assumed): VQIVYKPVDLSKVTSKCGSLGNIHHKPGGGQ
Method: (§1) Each compound was dissolved in DMSO to a concentration of 10 mM. Then, the compounds were diluted with 6 % DMSO (in DW) for use.
(§2) Amyloid-beta and tau solutions were prepared by dissolving Aβ1-42 or Tau-RD3 (Tau repeat domain 3) monomers in DMSO to a concentration of 10 mM. Then, the solutions were diluted to 100 µM with DW and stored on ice.
(§3) Meanwhile, Thioflavin-T was dissolved in 50 mM glycine buffer (pH 8.5) to a concentration of 5 mM. Then, the solution was diluted to 5 µM with 50 mM glycine buffer (pH 8.5) and stored in the dark, protected from light.
(§4) The amyloid-beta and tau solutions prepared in Example 1.1 were each placed in 1.5 mL microcentrifuge tubes to a concentration of 50 µM or 35 µM, respectively, and then reacted at 37 °C for 24 hours.
(§5) To each 1.5 mL microcentrifuge tube in which the amyloid-beta and tau aggregation was complete, the compounds were added at concentrations ranging from 500 µM down to 0 µM by serial dilution, and then further reacted at 37 °C for 48 hours.
(§6) 25 µL of each completed reaction solution was added to each well of a 96-well fluorescence analysis plate, and 75 µL of the Thioflavin-T solution was added to each well. After reacting for 5 minutes at room temperature in the dark, the fluorescence value was measured at 450 nm (excitation) and 485 nm (emission) using a multi-mode microplate reader.
(§7) The fluorescence value of the group (control group) treated with only amyloid-beta or tau and aggregated for 72 hours was designated as 100 %. The fluorescence values measured after treating the amyloid-beta and tau aggregates (formed by reacting for 24 hours) with each compound by concentration and reacting for an additional 48 hours were converted to relative values.

Aβ1-42 = molecular target: T1, Aβ1-42 (Homo sapiens, UniProt P05067); assay: Amyloid-beta disaggregation test by Thioflavin-T analysis; format: biochemical; conditions: for EC50: Aβ1-42 50 µM aggregated 24 hours, then compound 0 - 500 µM for 48 hours at 37 °C, concentration disaggregating 50 % of aggregates vs control, read-out: EC50 (µM) Aβ; for disaggregation effect for amyloid-beta protein aggregates: statement in words summarising the Thioflavin-T results
T1 construct: dissolving Aβ1-42 or Tau-RD3 (Tau repeat domain 3) monomers in DMSO
T1 sequence (P05067 672-713 limits assumed): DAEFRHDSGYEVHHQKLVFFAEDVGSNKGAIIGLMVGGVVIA
Method: as §1, §2, §3, §4, §5, §6, §7

EC50 [1] | EC50 (Aβ1-42) | SMILES | disaggregation effect for tau protein aggregates [1] | disaggregation effect for amyloid-beta protein aggregates (Aβ1-42)
< 20 µM | < 20 µM | Cc1ncsc1C1=C(c2cn(C)nn2)C(=O)c2cc(OCCCc3ccccc3)ccc21 [Compound 32, 2-(1-methyl-1H-1,2,3-triazol-4-yl)-3-(4-methylthiazol-5-yl)-6-(3-phenylpropoxy)-1H-inden-1-one] |  | 
< 20 µM | < 20 µM | Cc1ncsc1C1=C(c2cnn(C)n2)C(=O)c2cc(OCCCc3ccccc3)ccc21 [Compound 33, 2-(2-methyl-2H-1,2,3-triazol-4-yl)-3-(4-methylthiazol-5-yl)-6-(3-phenylpropoxy)-1H-inden-1-one] |  | 
100 to 250 µM | > 250 µM | Cc1ncsc1C1=C(C#N)C(=O)c2cc(OCCCc3ccccc3)ccc21 [Compound 34, 3-(4-methylthiazol-5-yl)-1-oxo-6-(3-phenylpropoxy)-1H-indene-2-carbonitrile] |  | 
20 to 100 µM | 20 to 100 µM | Cc1ncsc1C1=C(c2cccnc2)C(=O)c2cc(O)ccc21 [Compound 35, 6-hydroxy-3-(4-methylthiazol-5-yl)-2-(pyridin-3-yl)-1H-inden-1-one] |  | 
20 to 100 µM | 100 to 250 µM | Cc1ncsc1C1=C(c2cccnc2)C(=O)c2cc(OCCO)ccc21 [Compound 36, 6-(2-hydroxyethoxy)-3-(4-methylthiazol-5-yl)-2-(pyridin-3-yl)-1H-inden-1-one] |  | 
20 to 100 µM | 20 to 100 µM | COCCOc1ccc2c(c1)C(=O)C(c1cccnc1)=C2c1scnc1C [Compound 37, 6-(2-methoxyethoxy)-3-(4-methylthiazol-5-yl)-2-(pyridin-3-yl)-1H-inden-1-one] |  | 
> 250 µM | < 20 µM | Cc1ncsc1C1=C(c2ccncc2)C(=O)c2cc(OCCCc3ccccc3)ccc21 [Compound 39, 3-(4-methylthiazol-5-yl)-6-(3-phenylpropoxy)-2-(pyridin-4-yl)-1H-inden-1-one] |  | 
> 250 µM | > 250 µM | Cc1ncsc1C1=C(c2ccncc2)C(=O)c2cc(O)ccc21 [Compound 39-3, 6-hydroxy-3-(4-methylthiazol-5-yl)-2-(pyridin-4-yl)-1H-inden-1-one] |  | 
> 250 µM | < 20 µM | Cc1ncsc1C1=C(c2ccccn2)C(=O)c2cc(OCCCc3ccccc3)ccc21 [Compound 40, 3-(4-methylthiazol-5-yl)-6-(3-phenylpropoxy)-2-(pyridin-2-yl)-1H-inden-1-one] |  | 
> 250 µM | > 250 µM | Cc1ncsc1C1=C(c2ccccn2)C(=O)c2cc(O)ccc21 [Compound 40-4, 6-hydroxy-3-(4-methylthiazol-5-yl)-2-(pyridin-2-yl)-1H-inden-1-one] |  | 
> 250 µM | < 20 µM | Cc1ncsc1C1=C(c2cnccn2)C(=O)c2cc(OCCCc3ccccc3)ccc21 [Compound 41, 3-(4-methylthiazol-5-yl)-6-(3-phenylpropoxy)-2-(pyrazin-2-yl)-1H-inden-1-one] |  | 
> 250 µM | > 250 µM | Cc1ncsc1C1=C(c2cnccn2)C(=O)c2cc(O)ccc21 [Compound 41-4, 6-hydroxy-3-(4-methylthiazol-5-yl)-2-(pyrazin-2-yl)-1H-inden-1-one] |  | 
> 250 µM | > 250 µM | Cn1cc(C2=C(c3cccnc3)C(=O)c3cc(OCCCc4ccccc4)ccc32)cn1 [Compound 42, 3-(1-methyl-1H-pyrazol-4-yl)-6-(3-phenylpropoxy)-2-(pyridin-3-yl)-1H-inden-1-one] |  | 
20 to 100 µM | 20 to 100 µM | COc1ccc2c(c1)C(=O)C(c1cccnc1)=C2c1cnn(C)c1 [Compound 42-6, 6-methoxy-3-(1-methyl-1H-pyrazol-4-yl)-2-(pyridin-3-yl)-1H-inden-1-one] |  | 
100 to 250 µM | > 250 µM | Cn1cc(C2=C(c3cccnc3)C(=O)c3cc(O)ccc32)cn1 [Compound 42-7, 6-hydroxy-3-(1-methyl-1H-pyrazol-4-yl)-2-(pyridin-3-yl)-1H-inden-1-one] |  | 
> 250 µM | > 250 µM | O=C1C(c2cccnc2)=C(c2cn[nH]c2)c2ccc(OCCCc3ccccc3)cc21 [Compound 43, 6-(3-phenylpropoxy)-3-(1H-pyrazol-4-yl)-2-(pyridin-3-yl)-1H-inden-1-one] |  | 
> 250 µM | < 20 µM | COc1ccccc1C1=C(c2cccnc2)C(=O)c2cc(OCCCc3ccccc3)ccc21 [Compound 44, 3-(2-methoxyphenyl)-6-(3-phenylpropoxy)-2-(pyridin-3-yl)-1H-inden-1-one] |  | 
20 to 100 µM | 100 to 250 µM | COc1ccccc1C1=C(c2cccnc2)C(=O)c2cc(O)ccc21 [Compound 44-8, 6-hydroxy-3-(2-methoxyphenyl)-2-(pyridin-3-yl)-1H-inden-1-one] |  | 
100 to 250 µM | < 20 µM | COc1cccc(OC)c1C1=C(c2cccnc2)C(=O)c2cc(OCCCc3ccccc3)ccc21 [Compound 45, 3-(2,6-dimethoxyphenyl)-6-(3-phenylpropoxy)-2-(pyridin-3-yl)-1H-inden-1-one] |  | 
> 250 µM | 100 to 250 µM | COc1cccc(OC)c1C1=C(c2cccnc2)C(=O)c2cc(O)ccc21 [Compound 45-8, 3-(2,6-dimethoxyphenyl)-6-hydroxy-2-(pyridin-3-yl)-1H-inden-1-one] |  | 
< 20 µM | < 20 µM | Cc1cc(OCCCc2ccccc2)cc2c1C(c1scnc1C)=C(c1cccnc1)C2=O [Compound 46, 4-methyl-3-(4-methylthiazol-5-yl)-6-(3-phenylpropoxy)-2-(pyridin-3-yl)-1H-inden-1-one] | remarkably excellent disaggregation effect | remarkably excellent disaggregation effect
< 20 µM | < 20 µM | COc1cc(OCCCc2ccccc2)cc2c1C(c1scnc1C)=C(c1cccnc1)C2=O [Compound 47, 4-methoxy-3-(4-methylthiazol-5-yl)-6-(3-phenylpropoxy)-2-(pyridin-3-yl)-1H-inden-1-one] | remarkably excellent disaggregation effect | remarkably excellent disaggregation effect
> 250 µM | < 20 µM | Cc1ncsc1C1=C(c2cccnc2)C(=O)c2cc(OCCCc3ccccc3)cc(O)c21 [Compound 48, 4-hydroxy-3-(4-methylthiazol-5-yl)-6-(3-phenylpropoxy)-2-(pyridin-3-yl)-1H-inden-1-one] |  | 
> 250 µM | < 20 µM | Cc1ncsc1C1=C(c2cccnc2)C(=O)c2cc(NC3CCCC3)ccc21 [Compound 49, 6-(cyclopentylamino)-3-(4-methylthiazol-5-yl)-2-(pyridin-3-yl)-1H-inden-1-one] |  | 
> 250 µM | > 250 µM | CNc1ccc2c(c1)C(=O)C(c1cccnc1)=C2c1scnc1C [Compound 50, 6-(methylamino)-3-(4-methylthiazol-5-yl)-2-(pyridin-3-yl)-1H-inden-1-one] |  | 
20 to 100 µM | < 20 µM | Cc1ncsc1C1=C(c2cccnc2)C(=O)c2cc(NC3CCN(C)CC3)ccc21 [Compound 51, 6-((1-methylpiperidin-4-yl)amino)-3-(4-methylthiazol-5-yl)-2-(pyridin-3-yl)-1H-inden-1-one] |  | 

SMILES | EC50 [1] | EC50 (Aβ1-42) | disaggregation effect for tau protein aggregates [1] | disaggregation effect for amyloid-beta protein aggregates (Aβ1-42)
Cc1ncsc1C1=C(c2cccnc2)C(=O)c2cc(N(C)CCCc3ccccc3)ccc21 [Compound 38, 6-(methyl(3-phenylpropyl)amino)-3-(4-methylthiazol-5-yl)-2-(pyridin-3-yl)-1H-inden-1-one] | > 250 µM | < 20 µM |  | 
